Experimental findings from US7632814B2, “HYD1 peptides as anti-cancer agents” (University of South Florida, priority 2006, dated 2009) are described below.

What all share (format): cell-based
Assay [1] has as its system 8226 cells. Briefly: Cell adhesion to HS-5 bone marrow stroma cells (CMFDA fluorescence). The note with it: varying concentrations, 30 minutes pre-incubation, two hours adhesion. The procedure:
(§1) FIGS. 31A and 31B are graphs showing that HYD1 blocks adhesion of 8226 but not H929 cells to the bone marrow stroma cell line HS-5. Varying concentrations of either HYD1, HYD1S or a 1:100 dilution of a β1 integrin functional blocking antibody was added to either (FIG. 31A) CMFDA labeled 8226 cells or (FIG. 31B) CMFDA labeled H929 cells for 30 minutes prior to adding fluorescently labeled cells to either HS-5 or BSA coated wells for two hours. Unadhered cells were gently removed and adherent cells were quantified by total fluorescence. The independent experiments were performed and similar results were obtained.
(§2) Quantification of cell adhesion to HS-5 bone marrow stroma cells. Adhesion of 8226 or H929 cells to the HS-5 bone marrow stromal cells was performed as previously described (Nefedova Y et al. Leukemia, 2003; 17:1175-1182). Briefly, HS-5 cells were plated at a density of 500,000 cell/ml in a 96 well plate overnight. […] Cells were then counted and placed at a density of one million cells per ml and varying concentrations of peptide were added for 30 minutes prior to addition of 100 μl of cells to either HS-5 or BSA coated plates. Cells were allowed to adhere for two hours and unbound cells were washed with three gentle washes and total fluorescence was detected by a Victor plate reader, at 485 nm excitation and 535 nm emission. […]

Assay [2] relates to H929 cells. Described as above. Conditions: varying concentrations, 30 minutes pre-incubation, two hours adhesion. The procedure:
as §1, §2

Assay [3] deals with H929 cells. In words: Cell adhesion to fibronectin (crystal violet staining). The note with it: varying concentrations, 30 minutes pre-incubation, 2 hours adhesion. The procedure: (§3) FIGS. 30A and 30B are graphs showing that HYD1 but not the scrambled derivative HYD1S inhibited cell adhesion of both 8226 and H929 cells to FN. Varying concentrations of either HYD1, HYD1S, or a 1:100 dilution of either α4β1 or α5β1 integrin functional blocking antibodies was added to either (FIG. 30A) 8226 cell or (FIG. 30B) H929 cells for 30 minutes prior to adding cells to either FN or BSA coated wells. Cells were allowed to adhere for 2 hours and adherent cells were measured by crystal violet staining at 540 nm. Shown is the mean and standard deviation of a representative experiment performed in quadruplicate. Three independent experiments were performed and similar results were obtained.
Quantification of cell adhesion to fibronectin. Briefly, 8226 or H929 myeloma cells were pre-incubated with varying concentrations of either HYD1 or the scrambled peptide (HYD1S) for 30 minutes prior to allowing cells to attach to FN for two hours. Cell adhesion was detected by crystal violet staining as previously described (Damiano J S et al. Blood, 1999; 93:1658-1667; Hazlehurst L A et al. Oncogene, 2000; 19:4319-4327).

Assay [4] deals with H929 cells. Briefly: Detection of apoptosis, annexin V staining and FACS, suspension culture. The method, then:
FIG. 17 is a graph showing that HYD1 induces apoptosis as a single agent in 8226 and H929 cells cultured in suspension. 8226 and H929 cells were either treated with varying concentrations of HYD1 or vehicle control (equal volume sterile double distilled water) for 24 hours and apoptotic cells were detected by FACS analysis of annexin V positive cells. HYD1 specific apoptosis equals cell death due to peptide minus any apoptosis detected in control cells.
200 μM ZVAD-FMK was added to H929 cells for 30 minutes prior to the addition of either 75 μg/ml HYD1S or 15 μM Melphalan. Apoptosis was measured 24 hours after drug treatment by annexin/PI staining and apoptotic cells were detected by FACS analysis. Three independent experiments were performed and shown is a representative experiment.
Detection of Apoptosis. […] Blood, 1999; 93:1658-1667). The assay was performed in triplicate and 3 independent experiments were performed. Caspase 3 and 8 activity was measured at 6 and 24 hrs post peptide treatment per manufactures' instructions (BD Biosciences, San Jose, Calif.). The caspase assays were performed in triplicate and repeated twice.
Myeloma cells were plated at a density of 400,000 cells per ml in a 24 well plate. Cells were treated with the indicated dose of the peptide for 24 hours. Following 24 hrs of peptide exposure, apoptotic cells were detected using Annexin V staining and FACS analysis. Ten thousand events were analyzed by flow cytometry (Becton Dickinson, San Jose, Calif.). Experiments were performed in triplicate and repeated twice. Shown is a representative figure.

In assay [5] the test system is 8226 cells. In words: Cell adhesion to fibronectin (crystal violet staining). Conditions: varying concentrations, 30 minutes pre-incubation, 2 hours adhesion. The procedure:
as §3
Quantification of cell adhesion to fibronectin. […] Cell adhesion was detected by crystal violet staining as previously described (Damiano J S et al. Blood, 1999; 93:1658-1667; Hazlehurst L A et al. Oncogene, 2000; 19:4319-4327).
Briefly, 8226 myeloma cells were pre-incubated with varying concentrations of either HYD1 or the scrambled HYD1S peptide for 30 minutes prior to allowing cells to attach to FN for two hours. Following two hours of cell adhesion, the amount of cells adherent to FN was measured. […] Twenty-four hours after drug treatment, apoptosis was measured by Annexin V-PE positive events by FACS analysis. […]

Another assay concerns prostate tumor cell. In words: Random haptotaxis (cell migration) on laminin 322 (laminin 5). Conditions: soluble peptide, cells grown on ligand before treatment. From the text: Defining the minimal region of HYD1 necessary to potentiate drug-induced apoptosis in suspension and adherent cultures is of interest. Below is a study to determine the minimal HYD1 sequence required to block prostate tumor cell migration. Similar studies as those outlined below and using the same peptide sequences will be used to determine the minimal amino acid sequence required for potentiation of drug induced apoptosis.
This response to the peptide is independent of disrupting adhesion to laminin 322 (laminin 5) since the cells were grown on a ligand before treatment with the peptide. […] All other alanine-substitution mutants resulted cell migration, i.e., a loss of peptide activity.
Using the negative control scrambled peptide, HYDS (SEQ ID NO:44), to indicate 100% cell migration, several truncated peptides including, ikmviswkg (SEQ ID NO:22), kmviswkg (SEQ ID NO:39), and kikmviswk (SEQ ID NO:37) were effective at blocking cell migration by approximately 50%.

Where no end group is shown, it is not given here. [ ]: non-standard residue; d: D form.

As to “kikmviswkg ([dK][dI][dK][dM][dV][dI][dS][dW][dK]G) [HYD1]”, the “blocking of 8226 cells binding to HS-5 cells” value with 8226 cells [1] is on record as “partially blocked”. Further, the “blocking of H929 cells binding to HS-5 cells” value in the assay with H929 cells [2] is reported as “no effect”. Moreover, the “blocking of adhesion of H929 cells to the extracellular matrix FN” value in the assay on H929 cells [3] was “blocks adhesion of 8226 and H929 cells to the extracellular matrix FN in a dose dependent manner”. The “protection from induced cell death by pan caspase inhibitor ZVAD-FMK” value in the assay with H929 cells [4] (H929 cells, 200 μM ZVAD-FMK 30 minutes prior, apoptosis at 24 hours, annexin/PI) was “only marginally protected”. In the assay with H929 cells [4] (H929 cells, 6 hours), the “annexin V positive cells following 6 hours of treatment” value is on record as “can be detected”. Also, in the assay on H929 cells [4] (H929 cells, suspension culture, single agent, 24 hours), the “induction of annexin V positive cells” value was “dose dependent induction of annexin V positive cells”. In addition, the “melphalan-induced apoptosis in cells cultured in suspension” value with H929 cells [4] (H929 cells, suspension, peptide with melphalan) was “increased melphalan-induced apoptosis”. In the assay with H929 cells [4] (suspension culture), the “sensitivity to HYD1 treatment, H929 compared to 8226 cells” value was “H929 cells are more sensitive”. The “blocking of adhesion of 8226 cells to the extracellular matrix FN” value in the assay with 8226 cells [5] was “blocks adhesion of 8226 and H929 cells to the extracellular matrix FN in a dose dependent manner”. The “blocking of random haptotaxis on laminin 322 (laminin 5)” value in the assay with prostate tumor cell is reported as “completely blocks random haptotaxis”.
